Assay results as given in ChEMBL document CHEMBL1201862, “PubChem BioAssay data set” (2004).
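48-hour exposure; five concentrations; linearly interpolated endpoints. GI50 = concentration required for 50% inhibition of growth.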 Calls of active or inactive are those of the source. No stated cut-off is given here; in the data, active = GI50 up to about 1.1 µM and inactive = higher.

Legend:
Assay in all cases: NCI-60 cell line screen, 48 h
786-0 = system: 786-0
A549 = system: A549
ACHN = system: ACHN
BT-549 = system: BT-549
CAKI-1 = system: CAKI-1
CCRF-CEM = system: CCRF-CEM
COLO 205 = system: COLO 205
DLD-1 = system: DLD-1
DMS-114 = system: DMS-114
DMS-273 = system: DMS-273
DU-145 = system: DU-145
EKVX = system: EKVX
HCC 2998 = system: HCC 2998
HCT-116 = system: HCT-116
HCT-15 = system: HCT-15
HL-60 = system: HL-60
HOP-18 = system: HOP-18
HOP-62 = system: HOP-62
HOP-92 = system: HOP-92
HT-29 = system: HT-29
Hs-578T = system: Hs-578T
IGROV-1 = system: IGROV-1
K562 = system: K562
KM-20L2 = system: KM-20L2
KM12 = system: KM12
LOX IMVI = system: LOX IMVI
M14 = system: M14
M19-MEL = system: M19-MEL
MCF7 = system: MCF7
MDA-MB-231 = system: MDA-MB-231
MDA-MB-435 = system: MDA-MB-435
MDA-N = system: MDA-N
MOLT-4 = system: MOLT-4
Malme-3M = system: Malme-3M
NCI-H226 = system: NCI-H226
NCI-H23 = system: NCI-H23
NCI-H460 = system: NCI-H460
NCI-H522 = system: NCI-H522
NCI/ADR-RES = system: NCI/ADR-RES
OVCAR-3 = system: OVCAR-3
OVCAR-4 = system: OVCAR-4
OVCAR-5 = system: OVCAR-5
OVCAR-8 = system: OVCAR-8
PC-3 = system: PC-3
RPMI-8226 = system: RPMI-8226
RXF 393 = system: RXF 393
SF-268 = system: SF-268
SF-295 = system: SF-295
SF-539 = system: SF-539
SK-MEL-28 = system: SK-MEL-28
SK-MEL-2 = system: SK-MEL-2
SK-MEL-5 = system: SK-MEL-5
SK-OV-3 = system: SK-OV-3
SN12C = system: SN12C
SNB-19 = system: SNB-19
SNB-75 = system: SNB-75
SNB-78 = system: SNB-78
SR = system: SR
SW-620 = system: SW-620
T47D = system: T47D
TK-10 = system: TK-10
U-251 = system: U-251
UACC-257 = system: UACC-257
UACC-62 = system: UACC-62
UO-31 = system: UO-31
XF498 = system: XF498
A498 = system: A498
LXFL 529 = system: LXFL 529

N[C@H](C(=O)O)[C@H]1ON=C(Cl)[C@@H]1O
GI50 (786-0): 6.61 µM (inactive) | GI50 (A549): 1.56 µM (inactive) | GI50 (ACHN): 10.7 µM (inactive) | GI50 (BT-549): 3.97 µM (inactive) | GI50 (CAKI-1): 1.77 µM (inactive) | GI50 (CCRF-CEM): 0.966 µM (active) | GI50 (COLO 205): 0.59 µM (active) | GI50 (DLD-1): 1.09 µM (active) | GI50 (DMS-114): 6.61 µM (inactive) | GI50 (DMS-273): 1.16 µM (inactive) | GI50 (DU-145): 27.4 µM (inactive) | GI50 (EKVX): 5.11 µM (inactive) | GI50 (HCC 2998): 1.15 µM (inactive) | GI50 (HCT-116): 2.36 µM (inactive) | GI50 (HCT-15): 1.21 µM | GI50 (HL-60): 3.46 µM (inactive) | GI50 (HOP-18): > 360 µM (inactive) | GI50 (HOP-62): 2.13 µM (inactive) | GI50 (HOP-92): 27.4 µM (inactive) | GI50 (HT-29): 0.286 µM (active) | GI50 (Hs-578T): 8.65 µM (inactive) | GI50 (IGROV-1): 2.84 µM (inactive) | GI50 (K562): 1.63 µM (inactive) | GI50 (KM-20L2): 0.343 µM (active) | GI50 (KM12): 0.612 µM (active) | GI50 (LOX IMVI): 8.71 µM (inactive) | GI50 (M14): 6.03 µM (inactive) | GI50 (M19-MEL): 1.87 µM (inactive) | GI50 (MCF7): 2.6 µM (inactive) | GI50 (MDA-MB-231): 12.2 µM (inactive) | GI50 (MDA-MB-435): 3.56 µM (inactive) | GI50 (MDA-N): 2.95 µM (inactive) | GI50 (MOLT-4): 1.38 µM (inactive) | GI50 (Malme-3M): 24.1 µM (inactive) | GI50 (NCI-H226): 45.1 µM (inactive) | GI50 (NCI-H23): 3.52 µM (inactive) | GI50 (NCI-H460): 2.76 µM (inactive) | GI50 (NCI-H522): 0.942 µM (active) | GI50 (NCI/ADR-RES): 6.49 µM (inactive) | GI50 (OVCAR-3): 18.5 µM (inactive) | GI50 (OVCAR-4): 29.3 µM (inactive) | GI50 (OVCAR-5): 5.6 µM (inactive) | GI50 (OVCAR-8): 2.95 µM (inactive) | GI50 (PC-3): 7.03 µM (inactive) | GI50 (RPMI-8226): 2.43 µM (inactive) | GI50 (RXF 393): 58.3 µM (inactive) | GI50 (SF-268): 1.5 µM (inactive) | GI50 (SF-295): 5.97 µM (inactive) | GI50 (SF-539): 1.28 µM (inactive) | GI50 (SK-MEL-28): 3.24 µM (inactive) | GI50 (SK-MEL-2): 56.1 µM (inactive) | GI50 (SK-MEL-5): 0.929 µM (active) | GI50 (SK-OV-3): 14.3 µM (inactive) | GI50 (SN12C): 4.63 µM (inactive) | GI50 (SNB-19): 5.58 µM (inactive) | GI50 (SNB-75): 26.2 µM (inactive) | GI50 (SNB-78): 28.1 µM (inactive) | GI50 (SR): 1.73 µM (inactive) | GI50 (SW-620): 2.16 µM (inactive) | GI50 (T47D): 33.6 µM (inactive) | GI50 (TK-10): > 28.5 µM (inactive) | GI50 (U-251): 3.3 µM (inactive) | GI50 (UACC-257): 14.7 µM (inactive) | GI50 (UACC-62): 3.3 µM (inactive) | GI50 (UO-31): 18.3 µM (inactive) | GI50 (XF498): 59 µM (inactive)

COc1ccc(OC)c2cc(C3(C)SCCCS3)ccc12
GI50 (786-0): 73.6 µM (inactive) | GI50 (A498): > 100 µM (inactive) | GI50 (A549): > 100 µM (inactive) | GI50 (ACHN): > 100 µM (inactive) | GI50 (CAKI-1): 61 µM (inactive) | GI50 (CCRF-CEM): 71 µM (inactive) | GI50 (COLO 205): > 100 µM (inactive) | GI50 (DLD-1): > 100 µM (inactive) | GI50 (DMS-114): 92.5 µM (inactive) | GI50 (DMS-273): 79.6 µM (inactive) | GI50 (EKVX): > 100 µM (inactive) | GI50 (HCC 2998): > 100 µM (inactive) | GI50 (HCT-116): 83.4 µM (inactive) | GI50 (HCT-15): 88.1 µM | GI50 (HL-60): 59.3 µM (inactive) | GI50 (HOP-18): > 100 µM (inactive) | GI50 (HOP-62): > 100 µM (inactive) | GI50 (HT-29): 40.4 µM (inactive) | GI50 (IGROV-1): > 100 µM (inactive) | GI50 (K562): 53.5 µM (inactive) | GI50 (KM-20L2): 81.7 µM (inactive) | GI50 (KM12): > 100 µM (inactive) | GI50 (LOX IMVI): > 100 µM (inactive) | GI50 (LXFL 529): > 100 µM (inactive) | GI50 (M14): 65 µM (inactive) | GI50 (M19-MEL): > 100 µM (inactive) | GI50 (MOLT-4): 89.7 µM (inactive) | GI50 (Malme-3M): > 100 µM (inactive) | GI50 (NCI-H23): 84.3 µM (inactive) | GI50 (NCI-H460): 78.3 µM (inactive) | GI50 (OVCAR-3): > 100 µM (inactive) | GI50 (OVCAR-4): 60.3 µM (inactive) | GI50 (OVCAR-5): > 100 µM (inactive) | GI50 (OVCAR-8): > 100 µM (inactive) | GI50 (RPMI-8226): 69.3 µM (inactive) | GI50 (RXF 393): 20.5 µM (inactive) | GI50 (SF-268): > 100 µM (inactive) | GI50 (SF-295): 78.2 µM (inactive) | GI50 (SF-539): > 100 µM (inactive) | GI50 (SK-MEL-28): > 100 µM (inactive) | GI50 (SK-MEL-2): > 100 µM (inactive) | GI50 (SK-MEL-5): > 100 µM (inactive) | GI50 (SK-OV-3): > 100 µM (inactive) | GI50 (SN12C): > 100 µM (inactive) | GI50 (SNB-19): > 100 µM (inactive) | GI50 (SNB-75): 56.6 µM (inactive) | GI50 (SNB-78): 45.9 µM (inactive) | GI50 (SW-620): > 100 µM (inactive) | GI50 (TK-10): > 100 µM (inactive) | GI50 (U-251): 19.3 µM (inactive) | GI50 (UACC-257): > 100 µM (inactive) | GI50 (UACC-62): > 100 µM (inactive) | GI50 (UO-31): > 100 µM (inactive) | GI50 (XF498): 61.7 µM (inactive)

CC1(C)CCCC2(C)C3C(O)CC2(C)C(O)C31 (stereo not drawn)
GI50 (786-0): < 0.01 µM (active) | GI50 (A498): > 100 µM (inactive) | GI50 (A549): > 100 µM (inactive) | GI50 (ACHN): > 100 µM (inactive) | GI50 (CCRF-CEM): > 100 µM (inactive) | GI50 (COLO 205): > 100 µM (inactive) | GI50 (DLD-1): > 100 µM (inactive) | GI50 (DMS-114): > 100 µM (inactive) | GI50 (EKVX): > 100 µM (inactive) | GI50 (HCC 2998): > 100 µM (inactive) | GI50 (HCT-116): > 100 µM (inactive) | GI50 (HCT-15): > 100 µM | GI50 (HOP-18): > 100 µM (inactive) | GI50 (HOP-62): > 100 µM (inactive) | GI50 (HOP-92): > 10 µM (inactive) | GI50 (HT-29): > 100 µM (inactive) | GI50 (IGROV-1): > 100 µM (inactive) | GI50 (K562): > 100 µM (inactive) | GI50 (KM-20L2): > 100 µM (inactive) | GI50 (KM12): > 100 µM (inactive) | GI50 (LOX IMVI): > 100 µM (inactive) | GI50 (LXFL 529): > 100 µM (inactive) | GI50 (M14): > 100 µM (inactive) | GI50 (M19-MEL): > 100 µM (inactive) | GI50 (MOLT-4): > 100 µM (inactive) | GI50 (Malme-3M): > 100 µM (inactive) | GI50 (NCI-H226): > 100 µM (inactive) | GI50 (NCI-H23): > 100 µM (inactive) | GI50 (NCI-H460): > 100 µM (inactive) | GI50 (NCI-H522): > 100 µM (inactive) | GI50 (OVCAR-3): > 100 µM (inactive) | GI50 (OVCAR-4): > 100 µM (inactive) | GI50 (OVCAR-5): > 100 µM (inactive) | GI50 (OVCAR-8): > 100 µM (inactive) | GI50 (RXF 393): > 100 µM (inactive) | GI50 (SF-268): > 100 µM (inactive) | GI50 (SF-295): > 100 µM (inactive) | GI50 (SF-539): > 100 µM (inactive) | GI50 (SK-MEL-28): > 100 µM (inactive) | GI50 (SK-MEL-2): > 100 µM (inactive) | GI50 (SK-MEL-5): > 100 µM (inactive) | GI50 (SK-OV-3): > 100 µM (inactive) | GI50 (SN12C): > 100 µM (inactive) | GI50 (SNB-19): > 100 µM (inactive) | GI50 (SNB-75): > 100 µM (inactive) | GI50 (SNB-78): > 100 µM (inactive) | GI50 (SW-620): > 100 µM (inactive) | GI50 (TK-10): > 100 µM (inactive) | GI50 (U-251): > 100 µM (inactive) | GI50 (UACC-257): > 100 µM (inactive) | GI50 (UACC-62): > 100 µM (inactive) | GI50 (UO-31): > 100 µM (inactive) | GI50 (XF498): > 100 µM (inactive)
